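Dose response: 5 concentrations. Exposure: 48 h. Format: 96-well plates. Endpoint: linear interpolation; highest concentration if not reached. The concentration for full growth arrest is given as TGI.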
What was measured:
Experiment in all cases: NCI tumour cell line growth inhibition, 48 h
NCI-H23 lung = tested on: NCI-H23 lung
NCI-H522 lung = tested on: NCI-H522 lung
SK-MEL-5 melanoma = tested on: SK-MEL-5 melanoma
HOP-18 NSCLC = tested on: HOP-18 NSCLC
SF-295 CNS = tested on: SF-295 CNS
OVCAR-3 ovarian = tested on: OVCAR-3 ovarian
786-0 renal = tested on: 786-0 renal
NCI-H460 lung = tested on: NCI-H460 lung
LOX IMVI melanoma = tested on: LOX IMVI melanoma
TK-10 renal = tested on: TK-10 renal
KM20L2 colon = tested on: KM20L2 colon
A549 NSCLC = tested on: A549 NSCLC
HCC-2998 colon = tested on: HCC-2998 colon
COLO 205 colon = tested on: COLO 205 colon
KM12 colon = tested on: KM12 colon
UACC-62 melanoma = tested on: UACC-62 melanoma
MOLT-4 leukemia = tested on: MOLT-4 leukemia
CCRF-CEM leukemia = tested on: CCRF-CEM leukemia
HL-60(TB) leukemia = tested on: HL-60(TB) leukemia
RXF 393 renal = tested on: RXF 393 renal
M19-MEL melanoma = tested on: M19-MEL melanoma
SF-268 CNS = tested on: SF-268 CNS
SF-539 CNS = tested on: SF-539 CNS
SNB-75 CNS = tested on: SNB-75 CNS
HOP-62 NSCLC = tested on: HOP-62 NSCLC
K-562 leukemia = tested on: K-562 leukemia
XF 498 CNS = tested on: XF 498 CNS
RXF-631 renal = tested on: RXF-631 renal
OVCAR-8 ovarian = tested on: OVCAR-8 ovarian
HCT-15 colon = tested on: HCT-15 colon
A498 renal = tested on: A498 renal
U251 CNS = tested on: U251 CNS
NCI-H226 lung = tested on: NCI-H226 lung
UO-31 renal = tested on: UO-31 renal
HT29 colon = tested on: HT29 colon
DMS 273 small cell lung = tested on: DMS 273 small cell lung
SK-MEL-2 melanoma = tested on: SK-MEL-2 melanoma
SW-620 colon = tested on: SW-620 colon
M14 melanoma = tested on: M14 melanoma
SK-MEL-28 melanoma = tested on: SK-MEL-28 melanoma
ACHN renal = tested on: ACHN renal
SR leukemia = tested on: SR leukemia
OVCAR-5 ovarian = tested on: OVCAR-5 ovarian
HOP-92 NSCLC = tested on: HOP-92 NSCLC
EKVX NSCLC = tested on: EKVX NSCLC
CAKI-1 renal = tested on: CAKI-1 renal
MALME-3M melanoma = tested on: MALME-3M melanoma
OVCAR-4 ovarian = tested on: OVCAR-4 ovarian
DLD-1 colon = tested on: DLD-1 colon
HCT-116 colon = tested on: HCT-116 colon
SK-OV-3 ovarian = tested on: SK-OV-3 ovarian
RPMI-8226 leukemia = tested on: RPMI-8226 leukemia
IGROV1 ovarian = tested on: IGROV1 ovarian
SNB-78 CNS = tested on: SNB-78 CNS
SN12C renal = tested on: SN12C renal
UACC-257 melanoma = tested on: UACC-257 melanoma
LXFL 529 NSCLC = tested on: LXFL 529 NSCLC
SNB-19 CNS = tested on: SNB-19 CNS
DMS 114 small cell lung = tested on: DMS 114 small cell lung
SN12K1 renal = tested on: SN12K1 renal
P388 leukemia = tested on: P388 leukemia
MCF7 breast = tested on: MCF7 breast
P388/ADR leukemia = tested on: P388/ADR leukemia
NCI/ADR-RES ovarian = tested on: NCI/ADR-RES ovarian

Compound: COc1cc2c(c(O)c1O)-c1ccc(OC)c(=O)cc1C(NC(C)=O)CC2 (configuration not stated)
- TGI (NCI-H23 lung): 54.7 µM
- TGI (NCI-H522 lung): 6.48 µM
- TGI (SK-MEL-5 melanoma): 16.2 µM
- TGI (HOP-18 NSCLC): > 100 µM
- TGI (SF-295 CNS): 41.4 µM
- TGI (OVCAR-3 ovarian): 8.3 µM
- TGI (786-0 renal): > 82.8 µM
- TGI (NCI-H460 lung): 87.7 µM
- TGI (LOX IMVI melanoma): 34.8 µM
- TGI (TK-10 renal): > 100 µM
- TGI (KM20L2 colon): 11 µM
- TGI (A549 NSCLC): > 100 µM
- TGI (HCC-2998 colon): > 78.1 µM
- TGI (COLO 205 colon): 12.6 µM
- TGI (KM12 colon): 25.7 µM
- TGI (UACC-62 melanoma): 45.7 µM
- TGI (MOLT-4 leukemia): > 64.3 µM
- TGI (CCRF-CEM leukemia): 37.1 µM
- TGI (HL-60(TB) leukemia): 5.29 µM
- TGI (RXF 393 renal): 43.8 µM
- TGI (M19-MEL melanoma): 26.1 µM
- TGI (SF-268 CNS): > 100 µM
- TGI (SF-539 CNS): 24 µM
- TGI (SNB-75 CNS): 16.6 µM
- TGI (HOP-62 NSCLC): > 100 µM
- TGI (K-562 leukemia): 29.1 µM
- TGI (XF 498 CNS): 38.5 µM
- TGI (RXF-631 renal): > 92.9 µM
- TGI (OVCAR-8 ovarian): > 100 µM
- TGI (HCT-15 colon): > 100 µM
- TGI (A498 renal): > 89.9 µM
- TGI (U251 CNS): 25.8 µM
- TGI (NCI-H226 lung): 92.7 µM
- TGI (UO-31 renal): > 100 µM
- TGI (HT29 colon): > 70.3 µM
- TGI (DMS 273 small cell lung): > 100 µM
- TGI (SK-MEL-2 melanoma): 16.5 µM
- TGI (SW-620 colon): 51.6 µM
- TGI (M14 melanoma): > 100 µM
- TGI (SK-MEL-28 melanoma): > 100 µM
- TGI (ACHN renal): > 100 µM
- TGI (SR leukemia): 74.3 µM
- TGI (OVCAR-5 ovarian): > 100 µM
- TGI (HOP-92 NSCLC): 31.1 µM
- TGI (EKVX NSCLC): > 100 µM
- TGI (CAKI-1 renal): > 100 µM
- TGI (MALME-3M melanoma): > 100 µM
- TGI (OVCAR-4 ovarian): > 84.2 µM
- TGI (DLD-1 colon): > 100 µM
- TGI (HCT-116 colon): > 62.8 µM
- TGI (SK-OV-3 ovarian): 60.4 µM
- TGI (RPMI-8226 leukemia): > 43.7 µM
- TGI (IGROV1 ovarian): > 100 µM
- TGI (SNB-78 CNS): > 100 µM
- TGI (SN12C renal): > 80.8 µM
- TGI (UACC-257 melanoma): > 100 µM
- TGI (LXFL 529 NSCLC): 44.3 µM
- TGI (SNB-19 CNS): > 100 µM

Compound: O=C1C(=O)N(c2cc(Cl)ccc2Cl)C(=O)C(=O)C1c1nc2ccccc2o1
- TGI (NCI-H23 lung): > 100 µM
- TGI (NCI-H522 lung): > 100 µM
- TGI (SK-MEL-5 melanoma): > 100 µM
- TGI (HOP-18 NSCLC): > 100 µM
- TGI (SF-295 CNS): > 100 µM
- TGI (OVCAR-3 ovarian): > 100 µM
- TGI (786-0 renal): > 100 µM
- TGI (NCI-H460 lung): > 100 µM
- TGI (LOX IMVI melanoma): > 100 µM
- TGI (TK-10 renal): > 100 µM
- TGI (KM20L2 colon): > 100 µM
- TGI (A549 NSCLC): > 100 µM
- TGI (HCC-2998 colon): > 100 µM
- TGI (COLO 205 colon): > 100 µM
- TGI (KM12 colon): > 31.6 µM
- TGI (UACC-62 melanoma): > 100 µM
- TGI (MOLT-4 leukemia): > 100 µM
- TGI (CCRF-CEM leukemia): > 100 µM
- TGI (HL-60(TB) leukemia): > 100 µM
- TGI (RXF 393 renal): > 100 µM
- TGI (M19-MEL melanoma): > 100 µM
- TGI (SF-268 CNS): > 100 µM
- TGI (SF-539 CNS): > 100 µM
- TGI (SNB-75 CNS): > 100 µM
- TGI (HOP-62 NSCLC): > 100 µM
- TGI (K-562 leukemia): > 100 µM
- TGI (XF 498 CNS): > 100 µM
- TGI (RXF-631 renal): > 100 µM
- TGI (OVCAR-8 ovarian): > 100 µM
- TGI (HCT-15 colon): > 100 µM
- TGI (A498 renal): > 100 µM
- TGI (U251 CNS): > 100 µM
- TGI (UO-31 renal): > 100 µM
- TGI (HT29 colon): > 100 µM
- TGI (DMS 273 small cell lung): > 100 µM
- TGI (SK-MEL-2 melanoma): > 100 µM
- TGI (SW-620 colon): > 100 µM
- TGI (M14 melanoma): > 100 µM
- TGI (SK-MEL-28 melanoma): > 100 µM
- TGI (ACHN renal): > 100 µM
- TGI (OVCAR-5 ovarian): > 100 µM
- TGI (HOP-92 NSCLC): > 100 µM
- TGI (EKVX NSCLC): > 100 µM
- TGI (CAKI-1 renal): > 100 µM
- TGI (MALME-3M melanoma): > 100 µM
- TGI (OVCAR-4 ovarian): > 100 µM
- TGI (DLD-1 colon): > 100 µM
- TGI (HCT-116 colon): > 100 µM
- TGI (SK-OV-3 ovarian): > 100 µM
- TGI (RPMI-8226 leukemia): > 100 µM
- TGI (IGROV1 ovarian): > 100 µM
- TGI (SNB-78 CNS): > 100 µM
- TGI (SN12C renal): > 100 µM
- TGI (UACC-257 melanoma): > 100 µM
- TGI (LXFL 529 NSCLC): > 100 µM
- TGI (SNB-19 CNS): > 100 µM
- TGI (DMS 114 small cell lung): > 100 µM

Compound: C[C@]12CC[C@H](O)C=C1CC[C@@H]1[C@@H]2CC[C@]2(C)C(c3ccc(=O)oc3)CC[C@]12O (some centres not stated)
- TGI (NCI-H23 lung): 0.023 µM
- TGI (NCI-H522 lung): 0.0155 µM
- TGI (SN12K1 renal): 0.0201 µM
- TGI (SK-MEL-5 melanoma): 0.0163 µM
- TGI (HOP-18 NSCLC): 0.0151 µM
- TGI (SF-295 CNS): 0.0289 µM
- TGI (OVCAR-3 ovarian): 0.018 µM
- TGI (NCI-H460 lung): 0.0156 µM
- TGI (LOX IMVI melanoma): 0.242 µM
- TGI (KM20L2 colon): 0.148 µM
- TGI (A549 NSCLC): 0.0172 µM
- TGI (HCC-2998 colon): 0.208 µM
- TGI (COLO 205 colon): 0.188 µM
- TGI (KM12 colon): 0.129 µM
- TGI (UACC-62 melanoma): 0.0378 µM
- TGI (MOLT-4 leukemia): < 0.0125 µM
- TGI (CCRF-CEM leukemia): 0.151 µM
- TGI (HL-60(TB) leukemia): < 0.0125 µM
- TGI (RXF 393 renal): < 0.0125 µM
- TGI (M19-MEL melanoma): 0.071 µM
- TGI (SF-268 CNS): 0.0269 µM
- TGI (P388 leukemia): 125 µM
- TGI (SF-539 CNS): 0.0152 µM
- TGI (SNB-75 CNS): 0.0736 µM
- TGI (HOP-62 NSCLC): 0.0269 µM
- TGI (K-562 leukemia): 0.405 µM
- TGI (XF 498 CNS): 0.0505 µM
- TGI (OVCAR-8 ovarian): 0.0527 µM
- TGI (HCT-15 colon): 0.0803 µM
- TGI (A498 renal): 0.081 µM
- TGI (U251 CNS): 0.102 µM
- TGI (MCF7 breast): 0.173 µM
- TGI (NCI-H226 lung): 0.154 µM
- TGI (UO-31 renal): 0.041 µM
- TGI (HT29 colon): 0.293 µM
- TGI (DMS 273 small cell lung): 0.0427 µM
- TGI (SK-MEL-2 melanoma): 0.0647 µM
- TGI (SW-620 colon): 0.362 µM
- TGI (SK-MEL-28 melanoma): 0.222 µM
- TGI (OVCAR-5 ovarian): 0.321 µM
- TGI (HOP-92 NSCLC): 0.0448 µM
- TGI (P388/ADR leukemia): 125 µM
- TGI (EKVX NSCLC): 0.145 µM
- TGI (CAKI-1 renal): 0.0225 µM
- TGI (MALME-3M melanoma): 0.014 µM
- TGI (OVCAR-4 ovarian): 0.0356 µM
- TGI (DLD-1 colon): 0.0392 µM
- TGI (HCT-116 colon): 0.0674 µM
- TGI (SK-OV-3 ovarian): 0.065 µM
- TGI (RPMI-8226 leukemia): 0.0733 µM
- TGI (IGROV1 ovarian): 0.164 µM
- TGI (SNB-78 CNS): 0.503 µM
- TGI (SN12C renal): 0.0773 µM
- TGI (UACC-257 melanoma): 0.0777 µM
- TGI (NCI/ADR-RES ovarian): 0.0926 µM
- TGI (SNB-19 CNS): 0.237 µM
- TGI (DMS 114 small cell lung): < 0.0125 µM

— PubChem BioAssay (NCI)
